Data published in patent publication EP2147919A1, “Heterocyclic substituted amides, method for their manufacture and their use as herbicides” (Bayer CropScience Aktiengesellschaft, priority 2008, dated 2010).

Key:
Log P = format: physicochemical
MATIN [1] = assay: Herbicidal action pre-emergence (greenhouse pot test, visual rating); format: in vivo, Matricaria inodora; settings: Vorauflauf, 1280 g/ha, visual rating after 3 weeks vs untreated controls
Source text: (§1) Samen von mono- bzw. dikotylen Unkraut- bzw. Kulturpflanzen werden in Holzfasertöpfen in sandiger Lehmerde ausgelegt und mit Erde abgedeckt. Die in Form von benetzbaren Pulvern (WP) oder als Emulsionskonzentrate (EC) formulierten erfindungsgemäßen Verbindungen werden dann als wäßrige Suspension bzw. Emulsion mit einer Wasseraufwandmenge von umgerechnet 600 bis 800 l/ha unter Zusatz von 0,2% Netzmittel auf die Oberfläche der Abdeckerde appliziert.
(§2) Nach der Behandlung werden die Töpfe im Gewächshaus aufgestellt und unter guten Wachstumsbedingungen für die Testpflanzen gehalten. Die visuelle Bonitur der Schäden an den Versuchspflanzen erfolgt nach einer Versuchszeit von 3 Wochen im Vergleich zu unbehandelten Kontrollen (herbizide Wirkung in Prozent (%): 100% Wirkung = Pflanzen sind abgestorben, 0 % Wirkung = wie Kontrollpflanzen).

VIOTR [2] = assay: as above; format: in vivo, Viola tricolor; settings: Vorauflauf, 1280 g/ha, visual rating after 3 weeks vs untreated controls
Source text: as §1, §2

VERPE [3] = assay: as above; format: in vivo, Veronica persica; settings: Vorauflauf, 1280 g/ha, visual rating after 3 weeks vs untreated controls
Source text: as §1, §2

STEME [4] = assay: as above; format: in vivo, Stellaria media; settings: Vorauflauf, 1280 g/ha, visual rating after 3 weeks vs untreated controls
Source text: as §1, §2

AMARE [5] = assay: as above; format: in vivo, Amaranthus retroflexus; settings: Vorauflauf, 1280 g/ha, visual rating after 3 weeks vs untreated controls
Source text: as §1, §2

Schadpflanzen = assay: Herbicidal action pre-emergence, summary over the weed spectrum; format: in vivo; settings: Vorauflaufverfahren, Aufwandmenge von 1.28 kg und weniger Aktivsubstanz pro Hektar
Source text: as §1, §2

VIOTR [6] = assay: Herbicidal action post-emergence (greenhouse pot test, visual rating); format: in vivo, Viola tricolor; settings: Nachauflauf, 1280 g/ha, visual rating after ca. 3 weeks vs untreated controls
Source text: (§3) Samen von mono- bzw. dikotylen Unkraut- bzw. Kulturpflanzen werden in Holzfasertöpfen in sandigem Lehmboden ausgelegt, mit Erde abgedeckt und im Gewächshaus unter guten Wachstumsbedingungen angezogen. 2 bis 3 Wochen nach der Aussaat werden die Versuchspflanzen im Einblattstadium behandelt. Die in Form von benetzbaren Pulvern (WP) oder als Emulsionskonzentrate (EC) formulierten erfindungsgemäßen Verbindungen werden dann als wäßrige Suspension bzw. Emulsion mit einer Wasseraufwandmenge von umgerechnet 600 bis 800 l/ha unter Zusatz von 0,2% Netzmittel auf die grünen Pflanzenteile gesprüht. Nach ca. 3 Wochen Standzeit der Versuchspflanzen im Gewächshaus unter optimalen Wachstumsbedingungen wird die Wirkung der Präparate visuell im Vergleich zu unbehandelten Kontrollen bonitiert (herbizide Wirkung in Prozent (%): 100% Wirkung = Pflanzen sind abgestorben, 0 % Wirkung = wie Kontrollpflanzen).

STEME [7] = assay: as above; format: in vivo, Stellaria media; settings: Nachauflauf, 1280 g/ha, visual rating after ca. 3 weeks vs untreated controls
Source text: as §3

ABUTH [8] = assay: as above; format: in vivo, Abutilon theophrasti; settings: Nachauflauf, 1280 g/ha, visual rating after ca. 3 weeks vs untreated controls
Source text: as §3

MATIN [9] = assay: as above; format: in vivo, Matricaria inodora; settings: Nachauflauf, 1280 g/ha, visual rating after ca. 3 weeks vs untreated controls
Source text: as §3

AMARE [10] = assay: as above; format: in vivo, Amaranthus retroflexus; settings: Nachauflauf, 1280 g/ha, visual rating after ca. 3 weeks vs untreated controls
Source text: as §3

VERPE [11] = assay: as above; format: in vivo, Veronica persica; settings: Nachauflauf, 1280 g/ha, visual rating after ca. 3 weeks vs untreated controls
Source text: as §3

ABUTH [12] = assay: Herbicidal action pre-emergence (greenhouse pot test, visual rating); format: in vivo, Abutilon theophrasti; settings: Vorauflauf, 1280 g/ha, visual rating after 3 weeks vs untreated controls
Source text: as §1, §2

ECHCG = assay: as above; format: in vivo, Echinochloa crus-galli; settings: Vorauflauf, 1280 g/ha, visual rating after 3 weeks vs untreated controls
Source text: as §1, §2

ALOMY = assay: as above; format: in vivo, Alopecurus myosuroides; settings: Vorauflauf, 1280 g/ha, visual rating after 3 weeks vs untreated controls
Source text: as §1, §2

SETVI = assay: as above; format: in vivo, Setaria viridis; settings: Vorauflauf, 1280 g/ha, visual rating after 3 weeks vs untreated controls
Source text: as §1, §2

POLCO = assay: as above; format: in vivo, Polygonum convolvolus; settings: Vorauflauf, 1280 g/ha, visual rating after 3 weeks vs untreated controls
Source text: as §1, §2

LOLMU = assay: as above; format: in vivo, Lolium multiflorum; settings: Vorauflauf, 1280 g/ha, visual rating after 3 weeks vs untreated controls
Source text: as §1, §2

PHBPU = assay: Herbicidal action post-emergence (greenhouse pot test, visual rating); format: in vivo, Pharbitis purpurea; settings: Nachauflauf, 1280 g/ha, visual rating after ca. 3 weeks vs untreated controls
Source text: as §3

## COc1c(C(=O)NC(c2ccc(Cl)cc2)c2ccon2)csc1Br (stereo not drawn) [Beispiel 290]
Log P
  logP: 3.64

## Cn1nc(C(F)(F)F)c(C(=O)NC(c2ccc(Cl)cc2)c2ccon2)c1Cl (stereo not drawn) [Beispiel 262]
MATIN [1]
  herbizide Wirkung MATIN: 90%
VIOTR [2]
  herbizide Wirkung VIOTR: 100%
VERPE [3]
  herbizide Wirkung VERPE: 100%
STEME [4]
  herbizide Wirkung STEME: 100%
AMARE [5]
  herbizide Wirkung AMARE: 100%

## CCCOc1cc(C)nc(Cl)c1C(=O)NC(c1cnc(Cl)c(Cl)c1)c1ccon1 (stereo not drawn) [Beispiel 221]
Log P
  logP: 2.45

## O=C(NC(c1ccc(Cl)cc1)c1ccon1)c1ncn(Cc2ccccc2)c1[N+](=O)[O-] (stereo not drawn) [Beispiel 289]
Log P
  logP: 2.63

## COc1ccc(C(NC(=O)c2cnn(C)c2Cl)c2ccon2)c(F)c1 (racemic) [Beispiel 260, 5-Chlor-N-[(2-fluor-4-methoxyphenyl)(isoxazol-3-yl)methyl]-1-methyl-1 H-pyrazol-4-carboxamid]
Log P
  logP: 1.8

## COc1ccc(C(NC(=O)c2c(OC(C)C)cc(C)nc2Br)c2ccon2)c(F)c1 (stereo not drawn) [Beispiel 3, 2-Brom-N-[(2-fluor-4-methoxyphenyl)(isoxazol-3-yl)methyl]-4-isopropoxy-6-methylnicotinamid]
Schadpflanzen
  herbizide Wirkung gegen Schadpflanzen: sehr gute herbizide Wirkung

## Cc1cc(OC(C)C)c(C(=O)NC(c2cnc(Cl)c(Cl)c2)c2ccon2)c(Br)n1 (stereo not drawn) [Beispiel 224]
Log P
  logP: 2.51

## Cc1ccc(C(=O)NC(c2ccc(Cl)cc2)c2ccon2)cn1 (stereo not drawn) [Beispiel 209]
VIOTR [6]
  herbizide Wirkung VIOTR: 80%
STEME [7]
  herbizide Wirkung STEME: 100%
ABUTH [8]
  herbizide Wirkung ABUTH: 80%

## O=C(NC(c1ccon1)c1ccc(Cl)cc1Cl)c1ccc(Cl)nc1 (stereo not drawn) [Beispiel 201]
VIOTR [2]
  herbizide Wirkung VIOTR: 100%
VERPE [3]
  herbizide Wirkung VERPE: 100%
STEME [4]
  herbizide Wirkung STEME: 100%

## CCCOc1cc(C)nc(Br)c1C(=O)NC(c1ccc(Cl)cc1)c1ccon1 (stereo not drawn) [Beispiel 35]
Schadpflanzen
  herbizide Wirkung gegen Schadpflanzen: sehr gute herbizide Wirkung
Log P
  logP: 2.63

## Cc1cc(OC(C)C)c(C(=O)NC(c2cnc(Cl)c(Cl)c2)c2ccon2)c(Cl)n1 (stereo not drawn) [Beispiel 222]
Log P
  logP: 2.37

## COc1ccc(C(NC(=S)c2cnn(C)c2Cl)c2ccon2)c(F)c1 (stereo not drawn) [Beispiel 312, 5-Chlor-N-[(2-fluor-4-methoxyphenyl)(isoxazol-3-yl)methyl]-1-methyl-1 H-pyrazol-4-carbothioamid]
Log P
  logP: 1.76

## COc1ccc(C(NC(=O)c2cnc(C)c(Br)c2C)c2ccon2)c(F)c1 (stereo not drawn) [Beispiel 132]
Log P
  logP: 2.28

## Cc1nn(C)cc1C(=O)NC(c1ccc(Cl)cc1)c1ccon1 (stereo not drawn) [Beispiel 265]
MATIN [9]
  herbizide Wirkung MATIN: 80%
MATIN [1]
  herbizide Wirkung MATIN: 100%
AMARE [10]
  herbizide Wirkung AMARE: 100%
VIOTR [2]
  herbizide Wirkung VIOTR: 100%
VERPE [3]
  herbizide Wirkung VERPE: 100%
VIOTR [6]
  herbizide Wirkung VIOTR: 100%
STEME [4]
  herbizide Wirkung STEME: 100%
STEME [7]
  herbizide Wirkung STEME: 100%
AMARE [5]
  herbizide Wirkung AMARE: 100%
VERPE [11]
  herbizide Wirkung VERPE: 100%
ABUTH [8]
  herbizide Wirkung ABUTH: 100%
ABUTH [12]
  herbizide Wirkung ABUTH: 90%

## COc1ccc(C(NC(=O)c2cn(C)nc2C)c2ccon2)c(F)c1 (stereo not drawn) [Beispiel 266]
VIOTR [6]
  herbizide Wirkung VIOTR: 80%
STEME [7]
  herbizide Wirkung STEME: 100%
VERPE [11]
  herbizide Wirkung VERPE: 90%

## COc1cccc(C(NC(=O)c2nsc(Cl)c2Cl)c2ccon2)c1 (racemic) [Beispiel 306, 4,5-Dichlor-N-[(3-methoxyphenyl)(isoxazol-3-yl)methyl]isothiazol-3-carboxamid]
Log P
  logP: 3.44

## Cc1cc(C(=O)NC(c2ccc(Cl)cc2)c2ccon2)cs1 (stereo not drawn) [Beispiel 295]
MATIN [9]
  herbizide Wirkung MATIN: 80%
VIOTR [6]
  herbizide Wirkung VIOTR: 90%
STEME [7]
  herbizide Wirkung STEME: 100%
ABUTH [8]
  herbizide Wirkung ABUTH: 80%

## COc1ccc(C(NC(=O)c2c(OC(C)C)cc(C)nc2Cl)c2ccon2)c(F)c1 (stereo not drawn) [Beispiel 187]
Log P
  logP: 2.18

## COc1cccc(C(NC(=O)c2c(OC(C)C)cc(C)nc2Br)c2ccon2)c1 (stereo not drawn) [Beispiel 158]
Log P
  logP: 2.16

## COc1ccc(C(NC(=O)c2cnccc2OC)c2ccon2)c(F)c1 (stereo not drawn) [Beispiel 189]
Log P
  logP: 1

## Cc1cc(OC(C)C)c(C(=O)NC(c2ccc(Cl)cc2)c2ccon2)c(Cl)n1 (racemic) [Beispiel 152, 2-Chlor-N-[(4-chlorphenyl)(isoxazol-3-yl)methyl]-4-isopropoxy-6-methylnicotinamid]
ECHCG
  herbizide Wirkung ECHCG: 90%
MATIN [1]
  herbizide Wirkung MATIN: 100%
VIOTR [2]
  herbizide Wirkung VIOTR: 100%
VERPE [3]
  herbizide Wirkung VERPE: 100%
ALOMY
  herbizide Wirkung ALOMY: 80%
Schadpflanzen
  herbizide Wirkung gegen Schadpflanzen: sehr gute herbizide Wirkung
STEME [4]
  herbizide Wirkung STEME: 90%
AMARE [5]
  herbizide Wirkung AMARE: 100%
SETVI
  herbizide Wirkung SETVI: 100%
ABUTH [12]
  herbizide Wirkung ABUTH: 100%
POLCO
  herbizide Wirkung POLCO: 100%
LOLMU
  herbizide Wirkung LOLMU: 90%

## Cc1cc(Cl)c(C(=O)NC(c2ccc(F)c(F)c2)c2ccon2)c(OC(C)C)n1 (stereo not drawn) [Beispiel 164]
AMARE [10]
  herbizide Wirkung AMARE: 100%
VIOTR [2]
  herbizide Wirkung VIOTR: 100%
VERPE [3]
  herbizide Wirkung VERPE: 100%
PHBPU
  herbizide Wirkung PHBPU: 80%
VIOTR [6]
  herbizide Wirkung VIOTR: 80%
STEME [4]
  herbizide Wirkung STEME: 90%
AMARE [5]
  herbizide Wirkung AMARE: 100%
VERPE [11]
  herbizide Wirkung VERPE: 80%
ABUTH [8]
  herbizide Wirkung ABUTH: 90%
POLCO
  herbizide Wirkung POLCO: 100%

## COc1ccncc1C(=O)NC(c1ccc(F)c(F)c1)c1ccon1 (stereo not drawn) [Beispiel 190]
Log P
  logP: 1.07

## CCCOc1cc(C)nc(Br)c1C(=O)NC(c1ccon1)c1ccc(Cl)cc1Cl (stereo not drawn) [Beispiel 160]
MATIN [1]
  herbizide Wirkung MATIN: 100%
VIOTR [2]
  herbizide Wirkung VIOTR: 100%
VERPE [3]
  herbizide Wirkung VERPE: 100%
STEME [4]
  herbizide Wirkung STEME: 100%
AMARE [5]
  herbizide Wirkung AMARE: 100%
SETVI
  herbizide Wirkung SETVI: 90%
ABUTH [12]
  herbizide Wirkung ABUTH: 100%
POLCO
  herbizide Wirkung POLCO: 100%

## COc1ccncc1C(=O)NC(c1ccc(Cl)cc1)c1ccon1 (stereo not drawn) [Beispiel 188]
Log P
  logP: 1.18

## CCCOc1cc(C)nc(Br)c1C(=O)NC(c1cnc(Cl)c(Cl)c1)c1ccon1 (stereo not drawn) [Beispiel 223]
Log P
  logP: 2.6

## COc1c(C(=S)NC(c2ccc(Cl)cc2)c2ccon2)csc1Br (stereo not drawn) [Beispiel 313, 5-Brom-N-[(4-chlorphenyl)(isoxazol-3-yl)methyl]-4-methoxythiophen-3-carbothioamid]
Log P
  logP: 4.51

## Cc1ncc(C(=O)NC(c2ccc(Cl)cc2)c2ccon2)c(C)c1Br (stereo not drawn) [Beispiel 131]
Log P
  logP: 2.63

## COc1ccc(C(NC(=O)c2ccc(C)nc2)c2ccon2)c(F)c1 (stereo not drawn) [Beispiel 212]
AMARE [10]
  herbizide Wirkung AMARE: 80%
STEME [7]
  herbizide Wirkung STEME: 100%
VERPE [11]
  herbizide Wirkung VERPE: 80%
ABUTH [8]
  herbizide Wirkung ABUTH: 80%
